Here are results for 1 molecule from patent US8247444B2, “Anti-tumor effect of dimeric phthalide compound” (priority 2007, dated 2012).

Converted amounts (≈) assume the structure as drawn.

The subject of test [1] is secretion of VEGF in H1299 cell. Kind of test: VEGF in supernatant of tumor cell H1299 culture (VEGF-ELISA). The test is classed as cell-based, human. The following applies: H1299, compound 5 μg/ml, 24 h. How it is done:
Assay of vascular endothelial cell growth factor (VEGF) in supernatant of tumor cell H1299 culture. The cell was seeded into a 24-well plate (n=3 for each sample). H1299 cell was treated with S1-S6 respectively and cultured for 24 h. The culture supernatants from each group were collected and operated according to the instruction of VEGF-ELISA kit (JIN MEI Corporation). The samples were added, incubated, washed and detected at 450 nm for OD values of each sample. The standard curve was obtained by using different dose of VEGF standards and the secretory volume of VEGF in the supernatant was calculated.
Background: In an ELISA, binding on a coated surface is turned into a signal by an enzyme label.

Another test relates to Bel-7402/5-Fu. As to the kind of experiment: Growth inhibition of sensitive and drug-resistant cell lines (IC50), Bel-7402/5-Fu. The test is classed as cell-based. The following applies: Homo sapiens, Bel7402/5-FU; Bel-7402/5-Fu drug-resistant cells. The source says: (§1) HL-60/ADR, MCF-7/ADR, K562/ADR, Bel-7402/5-FU, KBV200, SMMC-7721/Adr were respectively chemotherapeutics Adriamycin (ADR), 5-Fluorouracil (5-FU) or vincristine (VCR) drug-resistant sub-stains of HL-60, MCF-7, K562, Bel-7402, KB, SMMC-7721 cells (all from Chinese Academy of Medical Sciences). NB4-R2 was all trans-retinoic acid (ATRA) drug-resistant sub-stain (from Pathophysiology Research Department of Shanghai JiaoTong University). The main drug-resistance mechanism of K562/ADR was high expression of P-glycoprotein (P-gp), along with increased expression of Bcl-2. In addition to high expression of P-gp, the drug-resistance mechanism of MCF-7/ADR also related to the high expression of Breast Cancer Resistant Protein (BCRP). The main drug-resistance mechanism of HL-60/ADR was high expression of Multidrug Resistance Protein 1 (MRP1), along with high expression of Bcl-2, Bcl-xL. […] The main drug-resistance mechanism of KBV200 was high expression of P-gp and its increased activity. The drug-resistance mechanism of NB4-R2 on ATRA was mutation in the RAR gene locus.
(§2) The human lung cancer cell H1299 and H446, glioma cell U251 and U87MG, and human hepatic cellular cancer Bel-7402 cell in logarithmic growth phase were digested with pancreatic enzyme, and then suspended into DMEM or RPMI1640 containing 10% fetal bovine serum. The leukemic cells Kasumi-1 need no digestion, and were suspended into RPMI1640 containing 10% fetal bovine serum directly after centrifugalization. The cell density was adjusted to 1×10^4 cells/ml through cell counting, and the cell suspensions were seeded into a 96-well plate respectively, 100 μl/well, totally 6 groups of cells. The adherent cells were cultured overnight, the suspended cells were added different concentration gradients of dimeric phthalide compounds (S1-S6) directly, n=6 for each concentration of a single agent. The final volume was 200 ul, and the balance was supplemented with the culture medium. The plate was then incubated for 68 hours in 37° C., saturated humidity, 5% CO2 cell incubator. The medium was aspirated and 72 μl/well fresh culture medium was added. 8 μl […] (CCK-8) was added into each well and cultured for 2 hours. The absorbance was measured at 450 nm. The results were calculated as the 50% inhibiting drug concentration, i.e. IC50, using Sigmoidal simulation function by software Origin 7.0.
(§3) The cancer cells (various cell lines as shown in table 1 or FIG. 3) were seeded 1×10^3 cells per well into a 96-well plate. The suspended cells were added different concentration of dimeric phthalide compounds (S1-S6) directly, and the adherent cells were cultured overnight and added different concentration of dimeric phthalide compounds (S1-S6). The different concentration of dimeric phthalide compounds were divided into 10 groups: 0, 0.1, 0.5, 1, 5, 10, 20, 40, 80, 160 μg/ml, n=6 for each concentration.
(§4) According to the method described in Example 2, […] was detected and IC50 was calculated. The experiment was repeated for 3 times.
(§5) The growth inhibition effects of dimers of S1-S6 on its sensitive cell lines as well as the drug-resistant sub-strains (IC50 (μg/ml)) were shown in table 1 and FIG. 3.

The test system of a further test is KB. Kind of test: Growth inhibition of sensitive and drug-resistant cell lines (IC50), KB. The test is classed as cell-based. The following applies: Homo sapiens; KB cells, Table 1. How it is done: (§6) In the following Examples, the cell lines used were H1299, H446 (human lung cancer cell line), KB (human oral cavity carcinoma cell line), NB4, HL-60 (human leukemic cell line), U251 ? U87MG (human glioblastoma cell line), MCF-7 (human breast carcinoma cell line), Bel-7402 and SMMC7721 (human hepatic cellular cancer cell line), SW620 (human colon carcinoma cell line), HDF (human dermis fibroblast), HUVEC (human umbilical vein endothelial cell line) and Kasumi-1 (human acute myeloid leukaemia cell line), all from American Type Culture Collection (ATCC).
as §2, §3, §4, §5

The next test has as its system MCF-7. As to the kind of experiment: Growth inhibition of sensitive and drug-resistant cell lines (IC50), MCF-7. The following applies: Homo sapiens, MCF7; MCF-7 cells. The test is classed as cell-based. How it is done: as §6, §2, §3, §4, §5
A further test deals with KBv200. Kind of test: Growth inhibition of sensitive and drug-resistant cell lines (IC50), KBv200. The format is cell-based. The following applies: Homo sapiens; KBv200 drug-resistant cells.
Description: as §1, §2, §3, §4, §5

For the next test, the system named is K562/Adr. Kind of test: Growth inhibition of sensitive and drug-resistant cell lines (IC50), K562/Adr. The test is classed as cell-based. The following applies: Homo sapiens; K562/Adr drug-resistant cells.
Description: as §1, §2, §3, §4, §5

Another test has as its system HDF. Kind of test: Vascular endothelial cell inhibition assay (CCK-8), HDF. The test is classed as cell-based. The following applies: Homo sapiens, 72 h. How it is done:
(§7) 2×10^3 cells were seeded into a 96-well plate and cultured for 24 h. S1-S6 of different concentrations (0, 0.01, 0.1, 0.5, 1, 2.5, 5, 10, 20, 40, 80, 160 μg/ml, respectively) were added and incubated for 72 h, n=6 for each concentration. The inhibition of cell proliferation was detected by CCK-8 assay, the results were calculated as IC50, as describe in Example 3.

The subject of the next test is SMMC-7721. Kind of test: Growth inhibition of sensitive and drug-resistant cell lines (IC50), SMMC-7721. The test is classed as cell-based. The following applies: Homo sapiens; SMMC-7721 cells. How it is done:
as §6, §2, §3, §4, §5

The subject of a further test is Bel-7402. As to the kind of experiment: Vascular endothelial cell inhibition assay (CCK-8), Bel-7402. The format is cell-based. The following applies: Homo sapiens, 72 h, CCK-8, Table 2. How it is done: as §7
For the next test, the system named is HL-60, H1299, U251 cells. Kind of test: Inducing cell death (Rh123/PI flow cytometry). The format is cell-based, human. The following applies: 48 h, FIG. 5. How it is done:
S1-S6 of different concentrations (as shown in FIG. 5) were added into HL-60, H1299, U251 cells under good growing conditions. The cells were cultured for 48 h, and collected. The cells were incubated with rhodamine 123 (Rh123) of the final concentration of 10 μg/ml for 20 min at 37° C., and then washed with pre-cooled PBS twice. The cells were suspended into PBS, and PI of final concentration of 25 μg/ml was added. After incubated in the dark at room temperature for 15 min, mitochondria membrane potential and PI positive cells were detected by flow cytometry, the death rate was calculated as the rate of PI positive cells.
A general note: Flow cytometry measures light scatter and fluorescence of single cells or particles in a stream.

For the molecule `CCC/C=C1\OC(=O)C2=C1CCC1C2[C@@]23CC[C@@H]1C=C2C(=O)O/C3=C\CCC` (some centres unmarked) [S4], in test [1], the “Supernatant VEGF” value was 234.00 ± 34.03 ng/ml/10^6 cells. In addition, the inhibition (in general, the change of the read-out against control, counted positive when it falls) at 5 µg/mL in test [1] (Homo sapiens, NCI-H1299, read-out: Inhibition rate of VEGF secretion) was determined as 37.3%. Besides, the IC50 (usually the point on the concentration scale where inhibition reaches its midpoint) in the test with Bel-7402/5-Fu came out at 17.6 ± 3.68 µg/mL (≈ 46.1 µM); in the test with KB, 15.5 ± 3.22 µg/mL (≈ 40.8 µM); with MCF-7 it was 18.4 ± 2.8 µg/mL (≈ 48.5 µM); with KBv200, 17.4 ± 2.03 µg/mL (≈ 45.9 µM); with K562/Adr it was 12.4 ± 1.01 µg/mL (≈ 32.5 µM); in the test on HDF it was 82.2 µg/mL (≈ 216 µM). The IC50 in the test with SMMC-7721 was 19.4 ± 3.12 µg/mL (≈ 51 µM); in the test with Bel-7402 it was 30.4 µg/mL (≈ 79.9 µM). In addition, the “inducing decrease of cell mitochondria membrane potential and cell death” value in the test with HL-60, H1299, U251 cells is given as “best effect of inducing cell death”.
